Source: patent US8557512B2, “Method of screening activators and/or inhibitors of insulin receptor substrate 2” (HMI Medical Innovations, LLC, priority 2003, dated 2013)
Where no end group is shown, it is not given here.

Key:
IRS2 [1] = assay: IRS2 levels in mouse islets; assay type: cell-based
Description: (§1) Drugs that increase IRS2 expression in mice stimulate beta cell function. An example of such a drug is exendin-4. Exendin-4 is a homolog of the natural peptide produced in the intestine called glucagon-like peptide-1. GLP1/Ex4 upregulates IRS2 levels in β-cells because they stimulate the production of cAMP. […] Other drugs that increase cAMP levels in these and other cells also increase IRS2 levels and stimulate its signaling pathways. Many of the positive actions of GLPL1/Ex4 on mouse and human cells are prevented by blocking the IRS2 gene from expressing its IRS2 protein product.

IRS2 [2] = assay: IRS2 levels in human islets; assay type: cell-based
Description: as §1

IRS2 mice = assay: Restoration of normal glucose homeostasis in IRS2 mice; assay type: in vivo; conditions: administration by injection
Description: (§2) Furthermore, GLP-1 also stimulates β-cell proliferation and neogenesis, and reduces or eliminates apoptosis of β-cells.

IRS2 [3] = conditions: β-cell lines; Jhala et al., Genes Dev. 17:1575-1580 (2003); cited from earlier work
IRS2 [4] = assay: IRS2 upregulation in beta cells and other cells; assay type: cell-based
Description: as §2

Row | Substance | levels of IRS2 (IRS2 [1]) | levels of IRS2 (IRS2 [2]) | restore normal glucose homeostasis (IRS2 mice) | IRS2 expression (IRS2 [3]) | IRS2 upregulation (IRS2 [4])
1 | exendin-4 | upregulate the levels of IRS2 | upregulate the levels of IRS2 | unsuccessful | strongly increases IRS2 expression | –
2 | glucagon-like peptide-1 (HAEGTFTSDVSSYLEGQAAKEFIAWLVKGR; ends and bridges not checked; UniProt P01275 98-127, looked up) [GLP-1, natural peptide produced in the intestine] | upregulate the levels of IRS2 | upregulate the levels of IRS2 | – | strongly increases IRS2 expression | strongly up regulates IRS2
